Experiments:
[1] = tested on: Pseudomonas aeruginosa efflux− (MB9799), IMP-1; assay type: cell-based; settings: concentration restoring susceptibility to imipenem at 2 μg/mL in the presence of a class A, C, D serine β-lactamase inhibitor closely related to relebactam
Description: (§1) The strain background was Pseudomonas aeruginosa PAO1.
(§2) The strain set was then used as a pair to determine the effect of metallo-β-lactamase inhibitors of Formula I on the MIC of imipenem and/or ceftazidime. A fixed concentration of antibiotic was included in standard microbroth MIC tests, usually at the CLSI (Clinical and Laboratory Standards Institute) breakpoint concentration. A fixed amount of a class A/C beta-lactamase inhibitor was also included to inhibit the resident Pseudomonas AmpC enzyme. A serial titration of the metallo-β-lactamase inhibitor was included and the concentration of metallo-β-lactamase inhibitor which restores susceptibility of the strain to the included antibiotic was recorded. That concentration of metallo-β-lactamase inhibitor was then compared between the two strains to determine the fold difference between the efflux+ (MB9798) and efflux− (MB9799) strains. This was taken as an indication of the extent to which the MBLi is subject to efflux.

[2] = tested on: Klebsiella pneumoniae expressing VIM-1 (IHMA599644); assay type: cell-based; settings: for Klebsiella pneumoniae expressing VIM-1 (IHMA599644) MITC95: with imipenem 1 μg/ml, 95% inhibition of bacterial growth; for Klebsiella pneumoniae MITC95: VIM-1 strain IHMA599644, with imipenem 1 μg/ml, 95% inhibition of growth
Method: (§3) Antibiotic Potentiation Activity: Determination of Synergistic Concentration
(§4) The bacterial strains tested included the clinical strains Escherichia coli expressing NDM-1 (CLB30005, CLB30016), Serratia marcescens expressing IMP-1 (CL5741), and Klebsiella pneumoniae expressing VIM-1 (IHMA599644). Inhibitor activity was measured in the presence and absence of imipenem in a 384-well microplate.
(§5) The clinical strains CLB30016, CL5741 and IHMA599644 were grown on trypticase soy agar containing 5% sheep's blood. The bacteria on agar plates were incubated at 35° C. with humidity overnight. The following day, individual colonies from each clinical strain were picked and resuspended in 5 ml saline to attain an OD600 of […], for CLB30016, CL5741 and IHMA599644, respectively. These were further diluted 1:100 into 1.1×CAMHB and used to inoculate the test wells as described below.
(§6) Imipenem in 10 mM 3-(N-morpholino)propanesulfonic acid (MOPS, pH 7) was stored in single use aliquots at −80° C. […] On the day of the assay, 4 μl of antibiotic was added to 45 ul of bacteria followed by 1 μl of test compound and mixed by pipetting and with an orbital shaker. The concentration of antibiotic used in the assay was 1 μg/ml. Microplates were covered and incubated at 35° C. for 22 hours to 24 hours. At the end of the incubation, absorbance was determined using a spectrophotometer.

[3] = tested on: Serratia marcescens expressing IMP-1 (CL5741); assay type: cell-based; settings: for Serratia marcescens expressing IMP-1 (CL5741) MITC95: with imipenem 1 μg/ml, 95% inhibition of bacterial growth; for Serratia marcescens MITC95: IMP-1 strain CL5741, with imipenem 1 μg/ml, 95% inhibition of growth
Method: as §3, §4, §5, §6

[4] = tested on: Escherichia coli expressing NDM-1 (CLB30005, CLB30016); assay type: cell-based; settings: with imipenem 1 μg/ml; for Escherichia coli expressing NDM-1 (CLB30016) MITC95: 95% inhibition of bacterial growth; for Escherichia coli MITC95: NDM-1 strain, 95% inhibition of growth
Method: as §3, §4, §5, §6

IMP-1 = IMP-1 (Serratia marcescens, UniProt P52699); assay: biochemical; assay type: biochemical; settings: fluorescence assay, CCF2-FA substrate, 2 pM enzyme, 2 hours at 25° C.; read-out: IMP-1 IC50
Method: (§7) Enzyme Activity: Determination of IC50
(§8) The Class B enzyme activities were measured in the presence of the test inhibitor in a fluorescence assay against a commercially available substrate consisting of a cephalosporin core linking 7-hydroxycoumarin to fluorescein (CCF2-FA). […] In a 384-well microplate, the test inhibitor was incubated with the metallo-β-lactamase enzyme and the substrate for 2 hours at 25° C. […] The IC50 value was determined from semi-logarithmic plots of enzyme inhibition versus inhibitor concentration, with a curve generated using a 4-parameter fit.

NDM-1 = NDM-1 (Klebsiella pneumoniae, UniProt C7C422); assay: biochemical; assay type: biochemical; settings: fluorescence assay, CCF2-FA substrate, 1 pM enzyme, 2 hours at 25° C.; read-out: NDM-1 IC50
Method: as §7, §8

[5] = tested on: Pseudomonas aeruginosa efflux+ (MB9798), IMP-1; assay type: cell-based; settings: concentration restoring susceptibility to imipenem at 2 μg/mL in the presence of a class A, C, D serine β-lactamase inhibitor closely related to relebactam
Description: as §1, §2

Chain of NDM-1 (C7C422 whole entry, looked up, species assumed): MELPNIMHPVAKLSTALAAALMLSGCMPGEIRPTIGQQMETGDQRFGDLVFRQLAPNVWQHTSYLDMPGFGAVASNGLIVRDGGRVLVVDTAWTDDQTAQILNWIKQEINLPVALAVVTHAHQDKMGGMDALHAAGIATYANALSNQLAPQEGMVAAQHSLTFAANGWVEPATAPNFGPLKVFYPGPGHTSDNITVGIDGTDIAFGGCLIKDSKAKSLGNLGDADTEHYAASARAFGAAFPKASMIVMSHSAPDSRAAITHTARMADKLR
Chain of IMP-1 (P52699 whole entry, looked up, species assumed): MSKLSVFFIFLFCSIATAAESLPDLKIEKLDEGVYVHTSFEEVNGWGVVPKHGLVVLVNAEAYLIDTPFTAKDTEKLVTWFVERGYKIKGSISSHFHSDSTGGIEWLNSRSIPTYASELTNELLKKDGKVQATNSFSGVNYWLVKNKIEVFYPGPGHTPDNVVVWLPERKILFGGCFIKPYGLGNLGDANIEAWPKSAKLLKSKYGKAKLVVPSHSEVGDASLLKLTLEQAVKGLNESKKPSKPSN

Compound | P. aeruginosa expressing IMP-1, efflux − (MB9799) MITC95 [1] [µM] | Klebsiella pneumoniae expressing VIM-1 (IHMA599644) MITC95 [2] [µM] | Serratia marcescens expressing IMP-1 (CL5741) MITC95 [3] [µM] | Escherichia coli expressing NDM-1 (CLB30016) MITC95 [4] [µM] | IC50 (IMP-1) [nM] | IC50 (NDM-1) [nM] | P. aeruginosa expressing IMP-1, efflux + (MB9798) MITC95 [5] [µM] | Klebsiella pneumoniae MITC95 [2] [µM] | Serratia marcescens MITC95 [3] [µM] | Escherichia coli MITC95 [4] [µM]
Nc1nc2c(-c3ccc(S(=O)(=O)NCCN4CCC4)c(S(N)(=O)=O)c3-c3nnn[nH]3)cccc2s1 [Example 21, 4-(2-amino-1,3-benzothiazol-4-yl)-N1-(2-azetidin-1-ylethyl)-3-(1H-tetrazol-5-yl)benzene-1,2-disulfonamide] | 1.563 | 6.25 | 3.125 | 6.25 | 0.383 | 0.0642 | 1.563 | – | – | –
Nc1nc2c(-c3ccc(S(=O)(=O)NCCN4CCCCC4=O)c(S(N)(=O)=O)c3-c3nnn[nH]3)cccc2s1 [Example 33, 4-(2-amino-1,3-benzothiazol-4-yl)-N1-[2-(2-oxopiperidin-1-yl)ethyl]-3-(1H-tetrazol-5-yl)benzene-1,2-disulfonamide] | 3.125 | 25 | 6.25 | 25 | 0.275 | 0.0731 | 12.5 | – | – | –
CS(=O)(=O)C1CCN(S(=O)(=O)c2ccc(-c3cccc4sc(N)nc34)c(-c3nnn[nH]3)c2S(N)(=O)=O)C1 (centres unmarked) [Example 45, 3-(2-amino-1,3-benzothiazol-4-yl)-6-{[3-(methylsulfonyl)pyrrolidin-1-yl]sulfonyl}-2-(1H-tetrazol-5-yl)benzenesulfonamide] | 3.125 | 25 | 6.25 | 50 | 1.65 | – | 25 | – | – | –
Nc1nc2c(-c3ccc(S(=O)(=O)N[C@H]4C[C@H](N)C4)c(S(N)(=O)=O)c3-c3nnn[nH]3)cccc2s1 [Example 71, 4-(2-amino-1,3-benzothiazol-4-yl)-N^1-(trans-3-aminocyclobutyl)-3-(1H-tetrazol-5-yl)benzene-1,2-disulfonamide] | 1.563 | 3.125 | 3.125 | 1.563 | – | 0.0612 | 1.563 | – | – | –
Nc1nc2c(-c3ccc(S(=O)(=O)NCC4(N)CCOC4)c(S(N)(=O)=O)c3-c3nnn[nH]3)cccc2s1.O=CO (centres unmarked) [Example 114, 3-((4-(2-aminobenzo[d]thiazol-4-yl)-2-sulfamoyl-3-(1H-tetrazol-5-yl)phenylsulfonamido)methyl)tetrahydrofuran-3-aminium formate] | 3.125 | 6.25 | 3.125 | 3.125 | – | 0.0649 | 3.125 | – | – | –
Nc1nc2c(-c3ccc(S(=O)(=O)NC[C@]4(F)CCCNC4)c(S(N)(=O)=O)c3-c3nnn[nH]3)cccc2s1.O=CO [Example 122, (S)-3-(((4-(2-aminobenzo[d]thiazol-4-yl)-2-sulfamoyl-3-(1H-tetrazol-5-yl)phenyl)sulfonamido)methyl)-3-fluoropiperidin-1-ium formate] | 1.563 | 3.125 | 1.563 | 1.563 | 0.282 | 0.0329 | 3.125 | – | – | –
CN(C)C(=O)c1ccccc1-c1ccc(S(=O)(=O)N[C@@H]2CCNC2)c(S(N)(=O)=O)c1-c1nnn[nH]1 [Example 129, (R)-N,N-dimethyl-4′-(N-(pyrrolidin-3-yl)sulfamoyl)-3′-sulfamoyl-2′-(1H-tetrazol-5-yl)-[1,1′-biphenyl]-2-carboxamide] | 3.125 | 12.5 | 6.25 | 6.25 | 9.07 | 0.279 | 12.5 | – | – | –
Nc1nc2c(-c3ccc(S(=O)(=O)N[C@@H]4CCNC4)c(S(N)(=O)=O)c3-c3nnn[nH]3)cc(F)cc2[nH]1 [Example 181, (R)-4-(2-amino-6-fluoro-1H-benzo[d]imidazol-4-yl)-N^1-(pyrrolidin-3-yl)-3-(1H-tetrazol-5-yl)benzene-1,2-disulfonamide] | 0.7813 | 1.563 | 0.7813 | 0.3906 | 0.273 | 0.0372 | 0.3906 | – | – | –
N=C(N)c1nc2c(-c3ccc(S(N)(=O)=O)c(S(N)(=O)=O)c3-c3nn[nH]n3)cccc2s1 [Example 192, 4-(3,4-disulfamoyl-2-(2H-tetrazol-5-yl)phenyl)benzo[d]thiazole-2-carboximidamide] | 0.7813 | 1.563 | 0.7813 | 1.563 | 0.699 | 0.274 | 1.563 | – | – | –
Nc1ccc(-c2ccc(S(=O)(=O)NCCc3c[nH]cn3)c(S(N)(=O)=O)c2-c2nn[nH]n2)cn1 [Example 217, N^1-(2-(1H-imidazol-4-yl)ethyl)-4-(6-aminopyridin-3-yl)-3-(2H-tetrazol-5-yl)benzene-1,2-disulfonamide] | 1.563 | 3.125 | 1.563 | 0.3906 | – | 0.447 | 12.5 | – | – | –
C[N+]1(C)CC(NS(=O)(=O)c2ccc(-c3cccc4[nH]c(N)nc34)c(-c3nn[nH]n3)c2S(N)(=O)=O)C1.O=C([O-])O [Example 245, 3-(4-(2-Amino-1H-benzo[d]imidazol-4-yl)-2-sulfamoyl-3-(2H-tetrazol-5-yl)phenylsulfonamido)-1,1-dimethylazetidin-1-ium hydrogencarbonate] | 1.563 | – | – | – | – | – | 1.563 | 3.125 | 1.563 | 0.7813
Nc1ncc(-c2ccc(S(=O)(=O)N[C@@H]3CCNC3)c(S(N)(=O)=O)c2-c2nn[nH]n2)s1 [Example 284] | 0.7813 | – | – | – | 0.411 | – | 0.7813 | 1.563 | 0.7813 | 1.563

— patent US10221163B2 (priority 2015, dated 2019)
